Results: patent US8822526B2, “Synergistic pharmaceutical combination for the treatment of cancer” (Piramal Enterprises Limited, priority 2007, dated 2014)

Columns and labels:
[1] = tested on: human non-small cell lung carcinoma H-460; experiment: Analysis of cell cycle distribution and flow cytometry (sub G1 apoptosis); assay type: cell-based
Experimental: The human non-small cell lung carcinoma H-460 was seeded in 25 mm^3 tissue culture flasks. […] The control cells were left untreated for 96 hours or 120 hours. Both detached and adherent cells were harvested at different time points. The cells were washed twice with approximately 5 mL of PBS with centrifugation at 1000 rpm for 10 minutes. The cells were re-suspended in 500 μL of PBS and fixed in 500 μL ice-cold 70% ethanol. The fixed cells were incubated at room temperature for 30 minutes, spun at 1000 rpm for 10 minutes. To the cell pellet 1 mL of chilled 70% ethanol was added and the cell pellet was then kept in fridge till further analysis. Cells were washed twice with PBS to remove fixative and re-suspended in 250 μL PBS. To this 50 μL of propidium iodide (4 mg/mL in PBS) and 12.5 μL Rnase A (1 mg/mL) was added. After incubation at 37° C. for 30 minutes, cells were analyzed using flow cytometry.
A Becton Dickinson FACS Calibur flow cytometer was used in accordance with the manufacturer's recommendations. The argon ion laser set at 488 nm was used as an excitation source. Cells with DNA content between 2n and 4n were designated as being in G1, S and G2/M phases of the cell cycle, as defined by the level of red fluorescence. […] The number of cells in each cell cycle compartment was expressed as a percentage of the total number of cells present
About 1-2×10^6 cells were seeded in a tissue culture flask for the treatment groups. The assay protocol was as mentioned above in “analysis of cell cycle distribution and flow cytometry”. The cell cycle was divided in four parts, which are represented in the FIG. 1 as M1, M2, M3 and M4. M1 corresponds to the G1 phase, M2 to the S phase, M3 to the G2-M phase and M4 to the sub G1 phase, which represents the cells undergoing apoptosis.
About 1-2×10^6 cells were seeded in a tissue culture flask for the treatment groups. The assay protocol was as mentioned above in “analysis of cell cycle distribution and flow cytometry”. The cell cycle was divided in four parts, which are represented in the figure as M1, M2, M3 and M4. M1 corresponds to the G1 phase, M2 to the S phase, M3 to the G2-M phase and M4 to the sub G1 phase, which represents the cells undergoing apoptosis.

[2] = tested on: human non-small cell lung carcinoma H-460; experiment: Annexin V-FITC staining (detection of early apoptosis); assay type: cell-based; conditions: doxorubicin 100 nM 24 hours; compound A 1200 nM 96 hours; combination doxorubicin 24 hours followed by compound A 96 hours
Experimental: Annexin V-FITC is a sensitive probe for identifying apoptotic cells. During early apoptosis the membrane phospholipid phosphotidyl serine (PS) is translocated from the inner to the outer leaflet of the plasma membrane, thereby exposing PS to the external cellular environment. Annexin V is a 35-36 kDa Calcium phospholipid binding protein that has a high affinity for PS and binds to cells with exposed PS. […] The human non-small cell lung carcinoma H-460 was seeded in 25 mm^3 tissue culture flasks. […] The control cells were left untreated for 120 hours. Medium containing floating cells were collected and pooled with the adherent cells after harvesting with trypsin at the different time points. The cells were washed twice with cold PBS with centrifugation at 1000 rpm for 10 minutes. The cell pellet was resuspended in 1× binding buffer (10 mm HEPES pH 7.4, 140 mM NaCl, 2.5 mM CaCl2) at a concentration of 1×10^6 cells/mL. 100 μl of the solution (1×10^5 cells) were stained with Annexin V-FITC and Propidium Iodide. The cells were incubated for 15 minutes at room temperature in the dark and the sample was analysed by flow cytometry. A Becton Dickinson FACS Calibur flow cytometer was used for these studies in accordance with the manufacturer's recommendations. The argon ion laser set at 488 nm was used as an excitation source. […] If the cells even after the termination of compound exposure continue to go into apoptosis, they would stain positive for annexin. The cells once in early apoptosis are committed to programmed cell death and at a point of no return.

[3] = tested on: Cdk1; experiment: Western blot analysis; assay type: cell-based, human; conditions: H-460; doxorubicin 100 nM 24 hours; compound A 1200 nM 96 hours; combination sequential; FIG. 6
Experimental: (§1) At the end of the treatment period cells were lysed and protein content of the lysate was estimated using the Bradford reagent. 40 μg of protein was loaded on SDS-PAGE and transferred on PVDF membrane. The membranes were probed with p53, Bax, Bcl-2, cyclin D1, Cdk1 and actin antibodies. The primary antibody were detected with horseradish […] secondary antibody and subjected to west pico chemiluminescence reagents.
(§2) Equal amount of protein was loaded in the four lanes. The different samples loaded in the wells are described in the figure legend. […] This correlates with the increased apoptosis seen in the combination treatment in FACS analysis. The pro-apoptotic protein Bax is slightly up regulated with respect to control in all treatment samples. […] Cdk1-B1 is an initiator of mitosis. The deregulation of this enzyme leads to tumorigenesis.

[4] = tested on: cyclin D1; experiment: Western blot analysis; assay type: cell-based, human; conditions: H-460; doxorubicin 100 nM 24 hours; compound A 1200 nM 96 hours; combination sequential; FIG. 6
Experimental: as §1, §2

[5] = tested on: COX-2; experiment: Western blot analysis using COX-2 antibody; assay type: in vivo, human; conditions: H-460 tumor xenograft; FIG. 9
Source text: FIG. 9 indicates western blot analysis using COX-2 antibody.
Therefore, NFκB mediated inhibition of COX-2 by the compound A could be involved in suppressing tumor growth and doxorubicin induced chemoresistance in human non-small cell lung carcinoma (H-460) tumor xenograft.

[6] = FIG. 1: 200 nM doxorubicin alone (24 hours), 800 nM compound A alone (72 hours), combination 200 nM doxorubicin (24 hours) followed by 800 nM compound A (72 hours)
[7] = FIG. 2: 100 nM doxorubicin alone (24 hours), 1200 nM compound A alone (96 hours), combination 100 nM doxorubicin (24 hours) followed by 1200 nM compound A (96 hours)

Row | SMILES | apoptosis (sub G1 phase) [1, 6] | apoptosis (sub G1 phase) [1, 7] | Annexin + ve (%) (cells in early apoptosis) [2] | Annexin and PI + ve (%) (cells in early to late apoptosis) [2] | Live cells (%) (healthy cells) [2] | PI + ve (%) (dead cells) [2] | Cdk1 levels (western blot) [3] | Cyclin D1 levels (western blot) [4] | COX-2 levels (western blot) [5]
1 | CN1CC[C@@H](c2c(O)cc(O)c3c(=O)cc(-c4ccccc4Cl)oc23)[C@@H]1CO.Cl [Compound A, (+)-trans-2-(2-Chloro-phenyl)-5,7-dihydroxy-8-(2-hydroxymethyl-1-methyl-pyrrolidin-3-yl)-chromen-4-one hydrochloride] | 10% | 32% | 38.5% | 8.2% | 53% | 0.3% | levels equal to control | slight reduction | low levels of COX-2
2 | COc1cccc2c1C(=O)c1c(O)c3c(c(O)c1C2=O)C[C@@](O)(C(=O)CO)C[C@@H]3O[C@H]1C[C@H](N)[C@H](O)[C@H](C)O1 [Doxorubicin] | 10% | 3% | 30.4% | 8.6% | 60% | 1% | significantly induces Cdk1 levels | slight reduction | strongly induced COX-2
